Measurements: US8088828B2, “Treating benign prostate hyperplasia with SARMS” (priority 2002, dated 2012)

Legend:
Format in all cases: in vivo, rat
[1] = tested on: intact male rats; test: Compound VII 0.5 mg/day in intact male rats, organ weights
[2] = tested on: intact male Sprague-Dawley rats; test: Prostate weight in intact Sprague-Dawley rats after 7 days of oral gavage
[3] = tested on: intact male Sprague-Dawley rats; test: Organ weights in intact male rats after 3, 6 or 9 days of daily subcutaneous injections
Description: Methods: Male Sprague-Dawley rats were purchased from Harlan Biosciences (Indianapolis, Ind.). The animals were maintained on a 12-h cycle of light and dark with food and water available ad libitum. Male Sprague-Dawley rats weighing 189 to 226 g were randomly distributed into groups of 5 animals. The intact male rats were treated with hydroxy-flutamide (0.5, 1, 5, 10 or 25 mg/kg), finasteride (5 mg/kg), Compound VII (0.5, 1, 5, 10, 25 mg/kg) or vehicle for 3, 6, or 9 days. The drugs were dissolved in DMSO:PEG300 (20:80, v:v) and administered via daily subcutaneous injections, and the dosages were adjusted based on animal's body weight, which was measured on a daily basis. A group of castrated rats (n=5) was also included as control for each time point. […] The organ weights were normalized with the body weights. Percentage changes were determined by comparison to intact animals. Statistical analyses of all the parameters were performed by single-factor ANOVA with the alpha value set a priori at p<0.05.

[4] = 3 days, in general over 0.5, 1, 5, 10, 25 mg/kg s.c.
[5] = 9 days, high doses (5, 10, 25 mg/kg) s.c.

## C[C@](O)(COc1ccc(F)cc1)C(=O)Nc1ccc([N+](=O)[O-])c(C(F)(F)F)c1 [Compound VII]
[1]
  effect on levator ani muscle weight: without affecting
  prostate weight: 63 % of that observed in vehicle-treated intact animals
[2]; 10 mg/kg compared to 1000 mg/kg as printed
  atrophy in prostate on increasing the dose 100-fold: did not significantly increase
[2]; all treatment groups, oral gavage once daily for 7 days, p<0.01
  reduction of prostate weight (normalized to body weight) compared to the intact control: greater than 48.4%
[3]; 3 days, 0.5, 1, 5, 10, 25 mg/kg s.c.
  effect on levator ani muscle weight: without affecting
[3]; [4]
  prostate weight (compared to intact animals): 80%
  seminal vesicle weight (compared to intact animals): 70%
[3]; 6 days, 5, 10, 25 mg/kg s.c.
  changes in levator ani muscle weights: none of these doses caused any significant changes
[3]; 9 days, 25 mg/kg s.c.
  increase of levator ani muscle weight: 12%
[3]; [5]
  prostate weight (compared to intact animals): 50%
  seminal vesicle weight (compared to intact animals): 45%
[3]; 9 days, highest dose group (25 mg/kg) s.c.
  levator ani muscle weight (compared to intact animals): 112%
[3]; 9 days, most of the dose groups s.c.
  changes in levator ani muscle weights: no significant changes
